The target in data set [1] is T1, CYP450 (20-HETE formation) (Homo sapiens, UniProt P04798+P05177+P05181+P08684+P10632+P10635+P11509+P11712+P13584+P20813+P20815+P20853+P24462+P24903+P33260+P33261+P51589+P78329+P98187+Q02928+Q08477+Q16678+Q16696+Q5TCH4+Q6VVX0+Q7Z449+Q8TAV3+Q96SQ9+Q9HB55). Put plainly: Inhibition of CYP450 in human liver microsomes assessed as inhibition of 20-HETE formation at 10 uM in presence of arachidonic acid and NADPH by multi-enzyme assay based LC-MS/MS analysis relative to control. In kind it is ADME, Microsome. Particulars: probe arachidonic acid. Background: Liver microsomes are vesicles of endoplasmic reticulum, rich in cytochrome P450 enzymes.

Data set [2] in a line: Inhibition of CYP450 in B6C3F1 mouse liver microsomes assessed as inhibition of 20-HETE formation in presence of arachidonic acid and NADPH by multi-enzyme assay based LC-MS/MS analysis relative to control. In kind it is ADME, Microsome.
The target in data set [3] is T2, CYP4A11 (Homo sapiens, UniProt Q02928).
T2 sequence (Q02928 whole entry): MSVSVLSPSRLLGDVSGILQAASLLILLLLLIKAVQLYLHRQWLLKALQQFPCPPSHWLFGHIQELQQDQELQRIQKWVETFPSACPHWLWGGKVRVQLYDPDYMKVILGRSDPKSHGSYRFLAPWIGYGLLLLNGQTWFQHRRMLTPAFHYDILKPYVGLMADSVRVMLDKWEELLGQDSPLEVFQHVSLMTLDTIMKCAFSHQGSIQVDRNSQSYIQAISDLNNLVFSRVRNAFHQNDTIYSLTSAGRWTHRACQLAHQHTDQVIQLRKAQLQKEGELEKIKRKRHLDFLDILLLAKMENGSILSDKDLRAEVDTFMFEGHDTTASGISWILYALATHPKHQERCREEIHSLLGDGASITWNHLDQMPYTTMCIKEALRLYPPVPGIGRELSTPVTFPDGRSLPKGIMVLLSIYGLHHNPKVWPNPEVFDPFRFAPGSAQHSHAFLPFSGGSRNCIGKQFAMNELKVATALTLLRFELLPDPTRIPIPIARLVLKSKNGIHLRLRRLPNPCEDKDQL
The data set is described as follows: Inhibition of recombinant human CYP4A11 expressed in baculovirus-infected insect cells at 50 uM incubated for 15 mins in presence of arachidonic acid and NADPH by jump-dilution assay relative to control. The format is ADME. Particulars: probe arachidonic acid.

Data set [4] deals with T3, Cytochrome P450 2J2 (Homo sapiens, UniProt P51589).
T3 sequence (P51589 whole entry): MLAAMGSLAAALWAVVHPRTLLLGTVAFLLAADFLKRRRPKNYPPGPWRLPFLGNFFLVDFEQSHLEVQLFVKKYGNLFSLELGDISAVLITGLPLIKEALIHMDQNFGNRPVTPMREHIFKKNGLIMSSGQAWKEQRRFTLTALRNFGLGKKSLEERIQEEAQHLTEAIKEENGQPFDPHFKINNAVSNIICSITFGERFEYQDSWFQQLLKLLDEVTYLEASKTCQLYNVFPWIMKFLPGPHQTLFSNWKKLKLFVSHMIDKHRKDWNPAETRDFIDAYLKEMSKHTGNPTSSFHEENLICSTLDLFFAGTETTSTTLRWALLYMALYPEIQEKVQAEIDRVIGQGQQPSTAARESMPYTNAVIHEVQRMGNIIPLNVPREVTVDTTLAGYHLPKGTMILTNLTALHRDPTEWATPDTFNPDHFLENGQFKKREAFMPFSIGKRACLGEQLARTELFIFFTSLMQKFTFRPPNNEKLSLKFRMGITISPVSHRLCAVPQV
The data set is described as follows: Inhibition of recombinant human CYP2J2 expressed in baculovirus-infected insect cells in presence of arachidonic acid and NADPH incubated for 15 mins by jump-dilution assay relative to control. The format is ADME.

In data set [5] the target is T1, CYP450 (20-HETE formation). The data set is described as follows: Inhibition of CYP450 in human HCT-116 cells assessed as 20-HETE formation in presence of arachidonic acid incubated for 15 mins by multi-enzyme assay based LC-MS/MS analysis relative to control. In kind it is ADME, cell-based. Particulars: probe arachidonic acid.
In data set [6] the target is T1, CYP450 (20-HETE formation). Put plainly: Inhibition of CYP450 in human HCT-116 cells assessed as 20-HETE formation in presence of arachidonic acid incubated for 15 mins by multi-enzyme assay based LC-MS/MS analysis. In kind it is ADME, cell-based. As to conditions: probe arachidonic acid.
Data set [7] can be described thus: Octanol-water partition coefficient, logP of the compound incubated for 1 hr by HPLC analysis. The format is physicochemical.
Data set [8] is described as follows: Apparent permeability of the compound by PAMPA assay. In kind it is ADME.
Data set [9] is described as follows: Apparent permeability of the compound in human Caco-2 cells. The format is ADME, cell-based. In general terms: Caco-2 monolayers are a common model of the intestinal barrier.
Data set [10] is described as follows: Solubility of the compound in phospahte-buffered saline buffer at pH 7.4 by shake flask method. In kind it is physicochemical. Particulars: phosphate-buffered saline.
A short description of data set [11]: Drug recovery in human HCT-116 cells incubated for 24 hrs. The format is ADME, cell-based. As to conditions: read-out: Drug recovery.
Data set [12] is described as follows: Drug recovery in human liver microsomes assessed as NADPH-fortified oxidative metabolism recovery in presence of arachidonic acid incubated for 30 mins. In kind it is ADME, Microsome. As to conditions: read-out: Drug recovery.
A short description of data set [13]: Drug recovery in human liver microsomes assessed as UDPGA-fortified conjugation recovery in presence of arachidonic acid incubated for 30 mins. The format is ADME, Microsome. As to conditions: read-out: Drug recovery.

Converted amounts (≈) assume the structure as drawn.

Usually inhibition stands for the drop in the measured response relative to a control, in per cent. As usually defined, the IC50 is the concentration that gives 50% inhibition. By logP is commonly meant the decadic logarithm of the partition coefficient of the neutral form, usually between octanol and water. Lower therefore signals lower lipophilicity. In general, Papp refers to a coefficient for how fast a substance crosses the barrier. One may read the solubility (thermodynamic) as solubility found after equilibrating the solid with the medium. On to `O=c1cc(-c2ccc(C(F)(F)F)cc2)oc2ccccc12`, for which, in [1], the inhibition at 10 µM stood at 53%. The IC50 in data set [2] was determined as 710 nM; in data set [4], 50000 nM. Further, in [3], the inhibition at 0.25 h, 50 µM was under 25%. The values for the IC50 at 15 min in [5] and in [6] were 1900 nM and 1100 nM, respectively. In addition, in data set [7], the logP at 1 h came out at 4.06. Further, the Papp in data set [8] came to 4.6 ×10⁻⁶ cm/s; in data set [9], 4.1 ×10⁻⁶ cm/s. This compound registered a solubility (thermodynamic) in [10] of 3.4 µM (≈ 0.987 µg/mL). For the same compound, the remaining at 24 h in data set [11] turned out to be 89%. The remaining at 0.5 h in [12] was 87%; in data set [13], over 95%.
